# Reference: patent US20090118253A1, “COMPOSITIONS AND METHODS FOR TREATING DYSFUNCTIONAL UTERINE BLEEDING” (REPROS THERAPEUTICS INC., priority 2007, published 2009)
# Columns and labels:
# glucocorticoid receptor = target: T1, glucocorticoid receptor (Homo sapiens, UniProt P04150); settings: compared with parent CDB-4124; cited from earlier work
# T1 sequence (P04150 1-777): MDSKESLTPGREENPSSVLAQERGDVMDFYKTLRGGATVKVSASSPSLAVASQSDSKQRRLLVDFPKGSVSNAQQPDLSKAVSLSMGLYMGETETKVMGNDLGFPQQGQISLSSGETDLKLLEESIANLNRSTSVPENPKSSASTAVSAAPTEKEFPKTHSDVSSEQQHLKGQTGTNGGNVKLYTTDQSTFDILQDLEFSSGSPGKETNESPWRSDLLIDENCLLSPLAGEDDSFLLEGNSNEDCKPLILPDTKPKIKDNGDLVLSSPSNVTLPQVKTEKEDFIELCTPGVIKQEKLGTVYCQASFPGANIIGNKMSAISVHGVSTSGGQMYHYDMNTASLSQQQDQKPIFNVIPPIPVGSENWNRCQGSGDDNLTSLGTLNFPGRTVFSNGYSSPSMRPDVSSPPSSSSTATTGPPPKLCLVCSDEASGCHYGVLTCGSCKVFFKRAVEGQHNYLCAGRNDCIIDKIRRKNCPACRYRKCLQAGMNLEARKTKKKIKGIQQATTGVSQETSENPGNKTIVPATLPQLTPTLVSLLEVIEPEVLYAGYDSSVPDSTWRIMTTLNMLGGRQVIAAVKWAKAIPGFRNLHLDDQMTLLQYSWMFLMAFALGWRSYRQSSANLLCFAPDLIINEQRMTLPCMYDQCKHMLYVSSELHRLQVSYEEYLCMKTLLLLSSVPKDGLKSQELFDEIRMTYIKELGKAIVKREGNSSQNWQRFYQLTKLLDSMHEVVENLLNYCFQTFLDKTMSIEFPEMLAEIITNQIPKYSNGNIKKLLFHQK
# [1] = test system: Cynomolgus monkey endometrial epithelium, uterus stroma and breast; assay: TUNEL apoptosis in cynomolgus monkey tissue; type: in vivo, Cynomolgus monkeys (Macaca fascicularis); settings: week 36, percent apoptotic cells
# Procedure: Apoptosis was assessed in tissue from the same animals on slides by the terminal deoxynucleotidyl transferase mediated dUTP-biotin nick end labeling (TUNEL) technique.
# [2] = in vivo
# Procedure: Thirty-nine pre-menopausal adult women diagnosed with endometriosis were the subject of a six month study of Proellex™ (CDB-4124) in the treatment of endometriosis. The study included three dose levels of CDB-4124 as well as a positive control arm. The positive control was Lucrin®, a GnRH agonist, commonly used for the treatment of endometriosis (also known as Lupron®). CDB-4124 was administered in a double blinded fashion as a daily oral capsule at dosages of 12.5mg/day (n=2), 25mg/day (n=3) and 50mg/day (n=3). Another group (n=4) were injected with a slow release formulation of Lucrin® once per month as a positive control.
# human endometrium = assay: Six month endometriosis study: ultrasound measurements of endometrial thickness; type: in vivo
# Text: Women in the study were closely monitored for changes in the structure of the endometrium. […] Comparisons were made to both baseline and visit one ultrasound measurements of endometrial thickness. […]
# [3] = test system: Cynomolgus monkey endometrial epithelia, uterus stroma and breast; assay: BrdU incorporation, tissue proliferation in cynomolgus monkeys; type: in vivo, Cynomolgus monkeys (Macaca fascicularis); settings: week 36, % cells positive for incorporation of BrdU, three animals per group
# Procedure: At week 36, three animals from each group of Example 6 were injected within 24 hours of sacrifice with the thymidine analog bromodeoxyuridine (BrdU), a marker of proliferating cells and their progeny, to assess tissue proliferation. Full thickness uterine sections were stained and examined microscopically for evidence of proliferation in terms of the % cells positive for incorporation of BrdU: […]
# [4] = Urinary estrogen levels (follicular phase) in cynomolgus monkeys; type: in vivo, Cynomolgus monkeys (Macaca fascicularis); parameters: Urinary estrogen, follicular phase, Mean: unit not given here; settings: for Urinary estrogen, follicular phase, Mean: CDB-4124 or RU-486 oral 1.0 mg/kg/day, Lupron IM once per month
# Procedure: (§1) Cynomolgus monkeys (Macaca fascicularis) (n=14) were treated orally for 36 weeks with CDB-4124 or RU-486 at 1.0 mg/kg/day or with placebo (control). Another group (n=14) received Lupron® IM once per month. Urinary progesterone levels were measured for each animal for one month during the middle of the study (weeks 14-17) and for the last month of the study (weeks 33-36). The results are presented below:
# Urinary estrogen levels were measured for each animal of Example 6 for one month during the middle of the study (weeks 14-17) and for the last month of the study (weeks 33-36). The follicular phase results are based on 35 baseline ovulating cycles.
# [5] = test system: pre-menopausal adult women diagnosed with endometriosis; assay: Six month endometriosis study: pain diaries and pain intensity surveys; type: in vivo, human
# Procedure: Pain reduction also occurred more rapidly than with the active control, Lucrin®. The response of pain to treatment in this study was analyzed in two ways. Patients in the study maintained daily pain diaries to record the severity and frequency of pain. In addition, at each office visit, patients filled out endometriosis symptom surveys that included a questionnaire that evaluated intensity of pain on a bad day on a scale of 0-10 with 10 being the greatest intensity. […] This decrease in duration of pain was statistically better (p=0.0012) than the 117.8 (74%; standard deviation 51.4 days) pain free days achieved with Lucrin n. […] Patients on CDB-4124 12.5 mg and 25 mg doses had 115.9 (66%; standard deviation 69.2 days) and 133.6 (75%; standard deviation 27.4 days) pain free days, respectively. […] The 25 mg and 12.5 mg doses of CDB-4124 were not statistically different from Lucrin®. […] The intensity of pain was asked by the question: “On a scale of 1-10, with 0 being no pain and 10 being extreme pain, how intense was your pain on a bad day?” The mean scores for intensity of pain at baseline were 6.3 for the CDB-4124 groups and 6.1 for the Lucrin® group. […] At month three all four active treatment groups had satistically significant reduction in pain compared with baseline, with the following scores: 3.7 (p=0.03) for 12.5 mg CDB-4124, 3.2 (p=0.03) for 25 mg CDB-4124, 1.6 (p=0.015) for 50 mg CDB-4124 and 1.5 (p=0.016) for Lucrin®. These dose related reductions continued until month six when the values for pain intensity were 2.0 (p=0.008), 2.8 (p=0.023), 0.6 (p=0.004) and 0.7 (p=0.016), respectively. Two months after stopping treatment pain returned and was of similar intensity in all four treatment groups.
# [6] = Urinary progesterone levels (luteal phase) in cynomolgus monkeys; type: in vivo, Cynomolgus monkeys (Macaca fascicularis); settings: n=14 per group; CDB-4124 or RU-486 oral 1.0 mg/kg/day for 36 weeks; Lupron IM once per month
# Procedure: as §1, with “33-36).” for “33-36). The results are presented below:”
smiles,measurement,setting,value
"CNc1ccc([C@H]2C[C@@]3(C)[C@@H](CC[C@]3(OC(C)=O)C(=O)COC)[C@@H]3CCC4=CC(=O)CCC4=C32)cc1 [CDB-4453, 21-methoxy-17α-acetoxy-11β-(4-N-methylaminophenyl)-19-norpregna-4,9-diene-3,20-dione]",anti-glucocorticoid activity,glucocorticoid receptor,even lower anti-glucocorticoid activity than its parent
"CCNC(=O)[C@@H]1CCCN1C(=O)[C@H](CCCNC(=N)N)NC(=O)[C@H](CC(C)C)NC(=O)[C@@H](CC(C)C)NC(=O)[C@H](Cc1ccc(O)cc1)NC(=O)[C@H](CO)NC(=O)[C@H](Cc1c[nH]c2ccccc12)NC(=O)[C@H](Cc1c[nH]cn1)NC(=O)[C@@H]1CCC(=O)N1 [Lupron ®, leuprolide acetate]",Breast Apo %,[1],1.4 ± 0.7%
same,Uterus epithelium Apo %,[1],0.2 ± 0.1%
same,Uterus stroma Apo %,[1],0.2 ± 0.1%
same,biomarkers of bone resorption compared with baseline,[2],statistically significant increase
same,estrogen level,[2],< 20 pg/mL
same,thickening of the endometrium after three months,"human endometrium; Lucrin, five women",did not have a thickening of the endometrium
same,"Endometrium (mm), 1st dose","human endometrium; Lupron once per month, 1st dose visit",7.5 mm
same,"Endometrium (mm), 3 months","human endometrium; Lupron once per month, 3 months",2.75 mm
same,"Endometrium (mm), screening","human endometrium; Lupron once per month, screening (baseline)",7.9 mm
same,Breast Brdu-%,[3],0.3 ± 0.1%
same,Uterus epithelium Brdu-%,[3],3.1 ± 0.8%
same,Uterus stroma Brdu-%,[3],2.2 ± 1.0%
same,Follicular phase estrogen Lower?,[4]; Week 18,Yes
same,"Urinary estrogen, follicular phase, Mean",[4]; Week 18,49.9
same,Follicular phase estrogen Lower?,[4]; Week 36,Yes
same,"Urinary estrogen, follicular phase, Mean",[4]; Week 36,41.7
same,mean score for intensity of pain on a bad day (scale 0-10),[5]; baseline,6.1
same,score for intensity of pain on a bad day (scale 0-10),"[5]; month six, Lucrin once per month",0.7
same,score for intensity of pain on a bad day (scale 0-10),"[5]; month three, Lucrin once per month",1.5
same,pain free days over the 180 day treatment period,"[5]; women, Lucrin once per month",117.8 days
same,"pain free days, percent","[5]; women, Lucrin once per month, 180 day treatment period",74%
same,days of pain over the first three months,"[5]; women, Lucrin slow release injection once per month",19.4 days
same,Decrease in luteal phase progesterone (number of animals),[6],13
same,No decrease in luteal phase progesterone (number of animals),[6],1
